For experiment [1], the system named is OCI-LY19 human B-cell lymphoma. Briefly: In vivo drug efficacy, OCI-LY19 human B-cell lymphoma mouse subcutaneous xenograft tumor model. To be noted: Group 2, 20 mg/kg p.o. once a day. On the procedure:
Cell culture: Human B-cell lymphoma OCI-LY19 cells were maintained as a monolayer in MEM-α medium containing 10% fetal bovine serum in a constant temperature incubator at 37° C. with 5% CO2. Tumor cells were subcultured twice a week. Cells in exponential growth phase were harvested and counted for inoculation.
Experimental animals: BALB/c nude mice, 6-8 weeks old, 19-22 g, purchased from Beijing Vital River Laboratory Animal Technology Co., Ltd.
For Vehicle, positive control (AZD6738, CAS number: 1352226-88-0) and compound 2, a total of 6 experimental groups were set up, as shown in Table 5 below:
Experimental method: The OCI-LY19 cell line (3.0×10^6 cells/mouse) was inoculated subcutaneously on the right back of the experimental mouse, and the inoculation volume of each mouse was 0.1 mL, and the growth of tumors was observed regularly, and until the tumor grew to about 100 mm^3, the mice were randomly divided into groups according to the tumor size and body weight, and administered according to the administration plan shown in Table 5, and the mouse body weight and tumor size were measured twice a week during the whole experiment.
tumor volume (mm^3)=0.5×(tumor long diameter×tumor short diameter^2). Tumor size calculation formula: […]
On the technique in general: Xenograft models place foreign cells or tissue in a host animal.

In the next experiment the target is ATR/ATRIP kinase (Homo sapiens (Human), UniProt Q13535). As to the kind of experiment: ATR enzyme assay (HTRF, phosphorylation of substrate protein P53). It is filed as biochemical. Conditions: substrate P53, TR-FRET. How it is done: In this experiment, the phosphorylation level of substrate protein P53 (Eurofins, 14-952) was detected by HTRF technology to measure the activity of ATR/ATRIP (Eurofins, 14-953) kinase. Reaction buffer (25 mM HEPES pH 8.0, 0.01% Brij-35, 1% Glycerol, 5 mM DTT, 1 mg/mL BSA), termination buffer (12.5 mM HEPES pH 8.0, 0.005% Brij-35, 0.5% Glycerol, 250 mM EDTA) and assay buffer (50 mM HEPES pH 7.0, 150 mM NaCl, 267 mM KF, 0.1% sodium cholate, 0.01% Tween 20) were prepared in advance. ATR/ATRIP was diluted with reaction buffer to a working solution of 2 ng/μL, and the substrate protein P53 was diluted with reaction buffer to a working solution of 80 nM, and 4 nM of ATP (Sigma, A2383) working solution (containing 40 mM MnCl2) was prepared with reaction buffer. The compound was 3-fold diluted with DMSO, then diluted with reaction buffer into a working solution, then added to a 384-well plate at 2.5 μL/well, and centrifuged at 1500 rpm for 40 s. Then 2.5 μL of ATR/ATRIP working solution, P53 working solution and ATP working solution were added into the 384-well plate, centrifuged at 1500 rpm for 40 s and reacted at room temperature for 30 minutes. After the reaction was completed, 5 μL of termination buffer was added to each well, and centrifuged at 1500 rpm for 40 s. Antibody working solution containing 0.083 μg/mL anti-phospho-p53 (Ser15)-K (CisBio, cat. 61P08KAE) and 5 μg/mL anti-GST-d2 (CisBio, cat. 61GSTDLA) was prepared with assay buffer and added to the 384-well plate at 5 μL/well, then centrifuged at 1500 rpm for 40 s and reacted overnight at room temperature. Microplate reader (Tecan, Infinite M1000 Pro) was used to detect TR-FRET, and the data were analyzed with Graphpad software, and the four-parameter equation was used to fit the curve and calculate the IC50 value of the inhibitor (Table 1).

The subject of experiment [2] is LOVO human colon cancer cell line. As to the kind of experiment: Cell proliferation assay (Cell titer glo). Format: cell-based. To be noted: LOVO cells, 72 hours. On the procedure:
In the present disclosure, cell assays were used to evaluate the biological activity of compounds. LOVO (Nanjing Cobioer), a human colon cancer cell line, was cultured in a Dulbecco's Modified Eagle's medium 96-well plate, supplemented with 10% fetal bovine serum and 1% P/S, and the culture environment was 37° C. and 5% CO2. Compound concentrations were ranged from 4.5 nM to 30 μM. The stock solution of the test compound was dissolved in DMSO and added to the medium at the indicated concentration, and incubated for 72 hours. Negative control cells were treated with vehicle only. In some experiments, known ATR inhibitors were added as positive controls. Cell viability was evaluated using the Cell titer glo kit (CTG, Promega) under the instructions of the product specification. The data were analyzed using Graphpad software, and IC50 values and compound fitting curves were obtained (Table 2).
A general note: In ATP-based viability assays light output follows the ATP content of the culture.

Where a name gives a salt, the structure may show the parent alone.

A word on the IC50: it is the midpoint of a concentration-inhibition curve. The low end stands for inhibition by little substance, the high end for a need for much substance.

Chain of ATR/ATRIP kinase (Q13535 whole entry): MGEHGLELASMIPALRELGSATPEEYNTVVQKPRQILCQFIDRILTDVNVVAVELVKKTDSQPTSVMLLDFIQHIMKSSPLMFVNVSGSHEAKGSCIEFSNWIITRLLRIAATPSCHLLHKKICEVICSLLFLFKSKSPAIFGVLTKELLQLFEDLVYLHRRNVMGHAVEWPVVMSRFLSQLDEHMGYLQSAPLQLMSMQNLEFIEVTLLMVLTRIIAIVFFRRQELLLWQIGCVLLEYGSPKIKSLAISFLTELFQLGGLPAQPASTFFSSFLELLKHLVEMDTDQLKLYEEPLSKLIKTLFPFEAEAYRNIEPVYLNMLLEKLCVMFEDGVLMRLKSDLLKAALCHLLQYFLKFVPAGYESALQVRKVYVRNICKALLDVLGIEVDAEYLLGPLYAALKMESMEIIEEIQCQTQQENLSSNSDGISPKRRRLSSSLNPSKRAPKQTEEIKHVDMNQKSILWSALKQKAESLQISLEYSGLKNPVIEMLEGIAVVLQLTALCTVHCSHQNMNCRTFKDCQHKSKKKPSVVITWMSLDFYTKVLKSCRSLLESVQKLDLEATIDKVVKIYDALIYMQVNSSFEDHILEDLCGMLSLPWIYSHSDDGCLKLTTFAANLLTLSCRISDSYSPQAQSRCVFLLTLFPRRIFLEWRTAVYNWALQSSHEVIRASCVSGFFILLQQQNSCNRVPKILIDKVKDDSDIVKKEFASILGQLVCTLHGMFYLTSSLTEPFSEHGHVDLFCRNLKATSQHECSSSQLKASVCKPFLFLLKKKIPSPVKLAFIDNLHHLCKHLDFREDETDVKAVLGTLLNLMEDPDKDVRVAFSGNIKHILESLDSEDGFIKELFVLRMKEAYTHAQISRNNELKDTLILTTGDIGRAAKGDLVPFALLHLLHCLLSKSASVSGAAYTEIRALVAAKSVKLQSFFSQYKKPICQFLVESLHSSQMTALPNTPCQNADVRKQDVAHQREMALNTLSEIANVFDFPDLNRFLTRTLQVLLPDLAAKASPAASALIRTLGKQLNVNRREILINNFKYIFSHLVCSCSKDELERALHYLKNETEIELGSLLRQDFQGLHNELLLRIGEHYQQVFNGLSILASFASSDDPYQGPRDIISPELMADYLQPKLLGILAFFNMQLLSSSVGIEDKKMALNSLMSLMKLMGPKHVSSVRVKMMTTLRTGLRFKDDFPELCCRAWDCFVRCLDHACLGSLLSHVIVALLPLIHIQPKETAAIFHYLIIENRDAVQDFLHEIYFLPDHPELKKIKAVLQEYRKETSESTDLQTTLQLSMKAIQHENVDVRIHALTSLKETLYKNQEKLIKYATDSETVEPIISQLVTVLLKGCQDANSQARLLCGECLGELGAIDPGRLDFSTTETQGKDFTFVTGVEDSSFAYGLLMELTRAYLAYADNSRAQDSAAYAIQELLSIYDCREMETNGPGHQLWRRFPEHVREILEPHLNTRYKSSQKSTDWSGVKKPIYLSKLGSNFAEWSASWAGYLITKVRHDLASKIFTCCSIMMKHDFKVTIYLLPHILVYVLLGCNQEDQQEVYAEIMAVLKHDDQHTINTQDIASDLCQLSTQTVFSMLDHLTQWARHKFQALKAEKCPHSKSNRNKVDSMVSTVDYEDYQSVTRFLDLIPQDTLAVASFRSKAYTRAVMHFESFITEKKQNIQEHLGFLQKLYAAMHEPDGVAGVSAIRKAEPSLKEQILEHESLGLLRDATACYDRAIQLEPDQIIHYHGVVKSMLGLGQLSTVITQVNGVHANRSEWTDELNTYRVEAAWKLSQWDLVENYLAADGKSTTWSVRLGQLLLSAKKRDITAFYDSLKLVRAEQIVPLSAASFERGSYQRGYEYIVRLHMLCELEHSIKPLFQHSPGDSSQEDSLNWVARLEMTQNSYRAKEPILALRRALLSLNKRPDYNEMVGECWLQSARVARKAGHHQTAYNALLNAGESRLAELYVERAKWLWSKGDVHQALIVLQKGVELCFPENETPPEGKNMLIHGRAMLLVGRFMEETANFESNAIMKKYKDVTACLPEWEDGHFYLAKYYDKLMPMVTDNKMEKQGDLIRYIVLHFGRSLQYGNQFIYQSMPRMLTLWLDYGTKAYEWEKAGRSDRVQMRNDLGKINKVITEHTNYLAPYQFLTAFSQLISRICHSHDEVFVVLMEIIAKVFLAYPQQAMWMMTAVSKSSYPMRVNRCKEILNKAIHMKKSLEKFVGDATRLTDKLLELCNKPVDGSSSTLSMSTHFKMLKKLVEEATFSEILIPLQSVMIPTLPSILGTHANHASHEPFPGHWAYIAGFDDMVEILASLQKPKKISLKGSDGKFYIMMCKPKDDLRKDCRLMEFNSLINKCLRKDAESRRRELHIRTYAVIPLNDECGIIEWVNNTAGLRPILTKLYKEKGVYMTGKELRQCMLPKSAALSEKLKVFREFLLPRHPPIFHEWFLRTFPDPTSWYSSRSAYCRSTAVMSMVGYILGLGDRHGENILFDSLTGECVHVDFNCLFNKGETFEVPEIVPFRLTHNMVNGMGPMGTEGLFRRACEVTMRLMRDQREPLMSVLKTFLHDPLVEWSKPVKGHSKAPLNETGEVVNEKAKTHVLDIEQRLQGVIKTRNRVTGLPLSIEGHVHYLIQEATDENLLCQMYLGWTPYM
Chain of ATR/ATRIP kinase (Q8WXE1 whole entry partner): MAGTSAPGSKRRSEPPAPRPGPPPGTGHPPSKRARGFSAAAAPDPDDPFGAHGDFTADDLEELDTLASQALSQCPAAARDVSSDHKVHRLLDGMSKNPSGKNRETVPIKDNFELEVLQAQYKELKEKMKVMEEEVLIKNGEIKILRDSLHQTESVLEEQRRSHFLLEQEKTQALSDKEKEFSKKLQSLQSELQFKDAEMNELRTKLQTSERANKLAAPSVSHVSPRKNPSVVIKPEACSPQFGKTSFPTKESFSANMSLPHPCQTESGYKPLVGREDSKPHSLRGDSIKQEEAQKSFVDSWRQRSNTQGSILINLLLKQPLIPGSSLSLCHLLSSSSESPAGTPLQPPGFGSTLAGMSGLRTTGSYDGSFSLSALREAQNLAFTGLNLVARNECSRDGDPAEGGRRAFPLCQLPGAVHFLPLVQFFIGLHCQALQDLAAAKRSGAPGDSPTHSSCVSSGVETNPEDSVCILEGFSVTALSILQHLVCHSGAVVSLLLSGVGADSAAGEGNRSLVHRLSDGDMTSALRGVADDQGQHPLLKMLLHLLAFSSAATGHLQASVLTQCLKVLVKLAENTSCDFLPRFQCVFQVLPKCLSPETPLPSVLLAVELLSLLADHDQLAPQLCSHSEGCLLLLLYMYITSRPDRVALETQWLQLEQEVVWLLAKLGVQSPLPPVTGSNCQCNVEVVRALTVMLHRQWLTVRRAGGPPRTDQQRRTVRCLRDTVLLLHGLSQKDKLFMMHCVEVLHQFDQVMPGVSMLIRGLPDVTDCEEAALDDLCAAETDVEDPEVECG

Regarding `C[C@@H]1COCCN1c1cc(C2([S@](C)(=N)=O)CC2)nc(-c2cc[nH]c3nccc2-3)n1` [AZD6738, reference compound], in experiment [1], the “T/C (%)” value amounted to 31.2% and the “TGI (%)” value was 72.1%. Besides, in experiment [1] (10 days), the “Tumor volume (10 days, mm^3)” value turned out to be 108.23 ± 4.67 mm^3. Also, in experiment [1] (24 days), the “Tumor volume (24 days, mm^3)” value was 738.65 ± 257.29 mm^3.

Turning to `C[C@@H]1COCCN1c1nc2c(cnn2-c2cc[nH]n2)c2c1CCN2S(=O)(=O)N(C)C` [Compound 4, (R)—N,N-dimethyl-4-(3-methylmorpholino)-6-(1H-pyrazol-3-yl)-2,3-dihydropyrazolo[3,4-b]pyrrolo[2,3-d]pyridine-1(6H)-sulfonamide trifluoroacetate], 1.8 nM corresponded to half-maximal inhibition against ATR/ATRIP kinase (IC50). That is a single-digit nanomolar value. The compound `C[C@@H]1COCCN1c1nc2c(cnn2-c2cc[nH]n2)c2c1CCN2S(N)(=O)=O` [Compound 5, (R)-4-(3-methylmorpholine)-6-(1H-pyrazol-3-yl)-2,3-dihydropyrazolo[3,4-b]pyrrolo[2,3-d]pyridine-1(6H)-sulfonamide] gave an IC50 in experiment [2] of 262 nM. As to `C[C@@H]1COCCN1c1nc2c(cnn2-c2cc[nH]n2)c2c1CCN2S(=O)(=O)C(F)(F)F` [Compound 6, (R)-4-(6-(1H-pyrazol-3-yl)-1-((trifluoromethyl)sulfonyl)-1,2,3,6-tetrahydropyrazolo[3,4-b]pyrrolo[2,3-d]pyridin-4-yl)-3-methylmorpholine trifluoroacetate], the IC50 stood at 79.6 nM in experiment [2] and 4.8 nM on ATR/ATRIP kinase. The matching figures for `C[C@@H]1COCCN1c1nc2c(c(C#N)nn2-c2cc[nH]n2)c2c1CCN2S(C)(=O)=O` [Compound 7, (R)-4-(3-methylmorpholinyl)-1-(methylsulfonyl)-6-(1H-pyrazol-3-yl)-1,2,3,6-tetrahydropyrazolo[3,4-b]pyrrolo[2,3-d]pyridine-8-carbonitrile]: 406 nM and 46 nM.

Regarding `C[C@@H]1COCCN1c1nc2c(-c3cc[nH]n3)nccc2c2c1ccn2S(C)(=O)=O` [Compound 8, (R)-3-methyl-4-(1-(methylsulfonyl)-6-(1H-pyrazol-3-yl)-1H-pyrrolo[3,2-c][1,7]naphthyridin-4-yl)morpholine], the half-maximal inhibitory concentration (IC50) in experiment [2] is 32.3 nM; against ATR/ATRIP kinase, 40 nM.

On to `C[C@@H]1COCCN1c1nc2c(cnn2-c2cc[nH]n2)c2c1CCN2C1CC1` [Compound 11, (R)-4-(1-cyclopropyl-6-(1H-pyrazol-3-yl)-1,2,3,6-tetrahydropyrazolo[3,4-b]pyrrolo[2,3-d]pyridin-4-yl)-3-methylmorpholine], for which the IC50 in experiment [2] was found to be 72 nM; at ATR/ATRIP kinase, 5.9 nM. In the case of `C[C@@H]1COCCN1c1nc2c(cnn2-c2cc[nH]n2)c2c1CCN2C` [Compound 12, (R)-3-methyl-4-(1-methyl-6-(1H-pyrazol-3-yl)-tetrahydropyrazolo[3,4-b]pyrrolo[2,3-d]pyridin-4-yl)morpholine], the IC50 in experiment [2] came to 93.7 nM. This lies in the double-digit nanomolar range. `C[C@@H]1COCCN1c1nc2c(cnn2-c2cc[nH]n2)c2c1CCN2c1cccnc1` [Compound 13, (R)-4-(6-(1H-pyrazol-3-yl)-1-(pyridin-3-yl)-1,2,3,6-tetrahydropyrazolo[3,4-b]pyrrolo[2,3-d]pyridin-4-yl)-3-methylmorpholine trifluoroacetate]: 7.5 nM corresponded to half-maximal inhibition on ATR/ATRIP kinase (IC50). In other words, the single-digit nanomolar range.

These data come from US20240025899A1, “TRIHETEROCYCLIC DERIVATIVE, AND PHARMACEUTICAL COMPOSITION AND APPLICATION THEREOF” (SHANGHAI DE NOVO PHARMATECH CO., LTD., priority 2020, published 2024).
